Measured values as given in patent publication US9539231B2, “Method for treating triple-negative breast cancer using AMPI-109” (The Regents of the University of Colorado, a body corporate, priority 2014, dated 2017).

Tests used:
T47D = test: MTS growth assay, 3 days treatment; type: cell-based, human; settings: Luminal A, 100 nM
Method: (§1) Breast cancer is a very heterogeneous disease consisting of multiple molecular subtypes. In order to examine the antitumorigenic properties of AMPI-109 in human breast cancer cells of various subtypes, a cohort of breast cancer cell lines were treated with AMPI-109 at its IC50 (the dose where 50% of the cells show the desired effects), equimolar 1,25D or ethanol control and cellular growth was quantified. In particular, the cell lines were treated at the approximate IC50 (100 nM) of AMPI-109, 1,25D (100 nM) or ethanol control for 3 days. MTS assays were then performed. The experiment was repeated three times with 6 replicates per experiment.
(§2) The percentage in Table 1 represents growth compared to control treatment. The p values represent significance of difference between 1,25D inhibition and AMPI-109 inhibition of growth. It can be concluded from the data that AMPI-109 inhibits the growth of multiple TN breast cancer subtypes and this inhibition appeared to be almost entirely specific for TN breast cancer cell lines.

MCF10A [1] = test: MTS growth assay, 3 days treatment; type: cell-based, human; settings: Nonmalignant, 100 nM
Method: as §1, §2

MDA-453 = test: MTS growth assay, 3 days treatment; type: cell-based, human; settings: MDA-453, HER2, 100 nM
Method: as §1, §2

BT-474 = test: MTS growth assay, 3 days treatment; type: cell-based, human; settings: BT-474, Luminal B, 100 nM
Method: as §1, §2

MDA-468 = test: MTS growth assay, 3 days treatment; type: cell-based, human; settings: MDA-468, TN (BL1), 100 nM
Method: as §1, §2

MDA-231 [2] = test: MTS growth assay, 3 days treatment; type: cell-based, human; settings: MDA-231, TN (MSL), 100 nM
Method: as §1, §2

MCF7 [3] = test: MTS growth assay, 3 days treatment; type: cell-based, human; settings: MCF7, Luminal A, 100 nM
Method: as §1, §2

HCC70 = test: MTS growth assay, 3 days treatment; type: cell-based, human; settings: HCC70, TN (BL2), 100 nM
Method: as §1, §2

BT-549 = test: MTS growth assay, 3 days treatment; type: cell-based, human; settings: BT-549, TN (M), 100 nM
Method: as §1, §2

BT-20 [4] = test: MTS growth assay, 3 days treatment; type: cell-based, human; settings: BT-20, TN (Unclass.), 100 nM
Method: as §1, §2

SKBR3 = test: MTS growth assay, 3 days treatment; type: cell-based, human; settings: SKBR3, HER2, 100 nM
Method: as §1, §2

SUM149 = test: MTS growth assay, 3 days treatment; type: cell-based, human; settings: SUM149, TN (BL2), 100 nM
Method: as §1, §2

BT-20 cells [5] = test: Growth assay in BT-20 cells with VDR shRNA knock down, 72 hours; type: cell-based, human; settings: p<0.001
Text: The inventors used shRNAs directed against VDR in BT-20 cells and examined the response after treatment with AMPI-109. […] The non-silencing control is designated as pLKO.

MDA-231 [6] = test: Cell viability by crystal violet staining, 7 days; type: cell-based, human; settings: 100 nM
Method: (§3) In order to determine the effects of AMPI-109 on cell viability as one possible explanation of the reduction in tumor size, the inventors plated various breast cancer cell lines in 6-well dishes and treated with either ethanol control (CU), vitamin D (1,25D) or AMPI-109. 1,25D and AMPI-109 were administered at 100 nM. The plates were incubated for 7 days and cell viability was assessed by crystal violet staining.

MCF7 [7] = test: Cell viability by crystal violet staining, 7 days; type: cell-based, human; settings: MCF7 luminal A, 100 nM
Method: as §3

BT-20 [8] = test: Cell viability by crystal violet staining, 7 days; type: cell-based, human; settings: 100 nM
Method: as §3

MCF-10A [9] = test: Cell viability by crystal violet staining, 7 days; type: cell-based, human; settings: MCF-10A non-malignant, 100 nM
Method: as §3

MCF-7 [10] = test: PARP cleavage by western blot, 24 hours; type: cell-based, human; settings: 100 nM
Method: (§4) Cleavage of poly (ADP)-ribose polymerase (PARP), a hallmark of apoptosis, was used to further investigate the ability of AMPI-109 to induce apoptosis of TN breast cancer cells. FIG. 2C, wherein PARP cleavage was determined by western blot, summarizes the results of cleaved PARP after treating MCF10A, MCF-7, BT-20 and MDA-231 with ethanol control (C), paclitaxel (100 nM, (T)), 1,25D (100 nM), (D)), or AMPI-109 (100 nM), (A)) for 24 hours. […] Accordingly, the results as described in FIG. 2A, FIG. 2B, and FIG. 2C indicate the capability of AMPI-109 as an agent to induce apoptosis of TN breast cancer cells.

MCF10A [11] = test: PARP cleavage by western blot, 24 hours; type: cell-based, human; settings: 100 nM
Method: as §4

MDA-231 [12] = test: PARP cleavage by western blot, 24 hours; type: cell-based, human; settings: 100 nM
Method: as §4

BT-20 [13] = test: PARP cleavage by western blot, 24 hours; type: cell-based, human; settings: 100 nM
Method: as §4

[14] = tested on: human breast cancer cells; test: IC50 of AMPI-109 for cellular growth (MTS); type: cell-based; settings: breast cancer cell lines, read-out: approximate IC50
Method: as §1

MDA-231 [15] = test: Apoptosis ELISA assay, 24 hours; type: cell-based, human; settings: 100 nM
Method: (§5) The inventors also examined the ability of AMPI-109 to induce apoptosis in TN breast cancer cells by performing ELISA assays. Various cell lines (MCF10A, MCF-7, BT-20 and MDA-231) were treated with ethanol control (C), paclitaxel (100 nM, (T)), 1,25D (100 nM), (D)), or AMPI-109 (100 nM), (A)) for 24 hours. ELISA assays were then performed. The p values in the figure were determined by T-test. […] Therefore, it can be concluded that AMPI-109 appears to specifically induce apoptosis in TN breast cancer cells.

BT-20 [16] = test: Apoptosis ELISA assay, 24 hours; type: cell-based, human; settings: 100 nM
Method: as §5

[17] = tested on: patient-derived triple negative breast cancer tumor xenograft; test: Patient-derived TNBC tumor xenograft growth inhibition; type: in vivo, NOD-SCID mice; settings: 1 ug/kg i.p. every other day for three weeks, vs vehicle
Text: The inventors further examined the ability of AMPI-109 to inhibit the growth of a patient-derived triple negative breast cancer tumor xenograft. A tumor from a person diagnosed with stage 4 triple negative breast cancer was propagated by serial passage through NOD-SCID mice. The tumor was dissected into equal sizes and implanted into the left and right mammary fat pads of 12 NOD-SCID mice. Once the tumors reached 100 mm^3 in size the mice were randomized into vehicle- and AMPI-109-treated arms. A total of 19 tumors grew out (9 for vehicle, and 10 for AMPI-109 treated). Vehicle control or AMPI-109 (1 ug/kg body weight) was administered by i.p. injection every other day for three weeks. Upon completion of the study, the tumors were excised and volume and mass were determined. […] The results were shown in FIG. 1, where * indicates a p value of 0.018, which was determined by T-test.

[18] = tested on: VDR-mediated gene expression; test: VDR-mediated gene expression; type: cell-based
BT-20 cells [19] = test: Block of AMPI-109-mediated growth inhibition by RXR antagonist; type: cell-based, human; settings: doses which blocked VDR-mediated gene expression
Text: VDR activates gene expression as a heterodimer with the retinoid X receptor (RXR). The inventors thus also tested whether pharmacologic inhibition of the VDR axis with HX531, an RXR antagonist, would block AMPI-109-mediated growth inhibition of BT-20 cells.

MCF-7 [20] = test: Apoptosis ELISA assay, 24 hours; type: cell-based, human; settings: 100 nM
Method: as §5

MCF-10A [21] = test: Apoptosis ELISA assay, 24 hours; type: cell-based, human; settings: 100 nM
Method: as §5

Row | Compound | % Control (growth compared to control treatment) (T47D) | % Control (growth compared to control treatment) (MCF10A [1]) | % Control (growth compared to control treatment) (MDA-453) | % Control (growth compared to control treatment) (BT-474) | % Control (growth compared to control treatment) (MDA-468) | % Control (growth compared to control treatment) (MDA-231 [2]) | % Control (growth compared to control treatment) (MCF7 [3]) | % Control (growth compared to control treatment) (HCC70) | % Control (growth compared to control treatment) (BT-549) | % Control (growth compared to control treatment) (BT-20 [4]) | % Control (growth compared to control treatment) (SKBR3) | % Control (growth compared to control treatment) (SUM149) | induction of apoptosis (ELISA) (MDA-231 [15]) | induction of apoptosis (ELISA) (BT-20 [16]) | also measured
1 | C=C1/C(=C\C=C2/CCC[C@]3(C)[C@@H]([C@H](C)CCCC(C)(C)O)CC[C@@H]23)C[C@@H](O)C[C@@H]1O [1,25D, reference compound] | 98% | 102% | 94% | 87% | 86% | 96% | 95% | 83% | 94% | 82% | 100% | 92% | – | – | –
2 | C=C1/C(=C\C=C2/CCC[C@]3(C)[C@@H]([C@H](C)CCCC(C)(C)O)CC[C@@H]23)C[C@@H](OC(=O)CBr)C[C@@H]1O [AMPI-109, 1α,25-Dihydroxyvitamin D3-3β-bromoacetate] | 94% | 99% | 86% | 66% | 39% | 44% | 93% | 49% | 69% | 29% | 99% | 39% | strong induction of apoptosis | strong induction of apoptosis | growth inhibition (BT-20 cells [5]; BT-20 cells with VDR knocked down (VDR3, VDR8 shRNAs)): equally effective at inhibiting the growth; growth inhibition (BT-20 cells [5]; BT-20 control cells (pLKO non-silencing)): equally effective at inhibiting the growth; cell viability (crystal violet staining) (MDA-231 [6]): significant reduction in cell viability; cell viability (crystal violet staining) (MCF7 [7]): no effect on cell viability; cell viability (crystal violet staining) (BT-20 [8]): significant reduction in cell viability; cell viability (crystal violet staining) (MCF-10A [9]): no effect on cell viability; PARP cleavage (western blot) (MCF-7 [10]): only in BT-20 and MDA-231 cells; PARP cleavage (western blot) (MCF10A [11]): only in BT-20 and MDA-231 cells; PARP cleavage (western blot) (MDA-231 [12]): promoted PARP cleavage; PARP cleavage (western blot) (BT-20 [13]): promoted PARP cleavage; IC50 [14]: ~100 nM; tumor mass [17]: significant reduction; tumor volume [17]: significant reduction; reduction of the size of the tumors ([17]; p 0.018): approximately 30%
3 | CN1c2ccc([N+](=O)[O-])cc2N=C(c2ccc(C(=O)O)cc2)c2cc3c(cc21)C(C)(C)CCC3(C)C [HX531] | – | – | – | – | – | – | – | – | – | – | – | – | – | – | effect on VDR-mediated gene expression [18]: blocked VDR-mediated gene expression; effect on AMPI-109-mediated growth inhibition (BT-20 cells [19]): did not inhibit the antiproliferative effects of AMPI-109
4 | CC(=O)O[C@H]1C(=O)[C@@]2(C)[C@H]([C@H](OC(=O)c3ccccc3)[C@]3(O)C[C@H](OC(=O)[C@H](O)[C@@H](NC(=O)c4ccccc4)c4ccccc4)C(C)=C1C3(C)C)[C@]1(OC(C)=O)CO[C@@H]1C[C@@H]2O [paclitaxel, reference compound] | – | – | – | – | – | – | – | – | – | – | – | – | induced apoptosis in all cells tested | induced apoptosis in all cells tested | induction of apoptosis (ELISA) (MCF-7 [20]): induced apoptosis in all cells tested; induction of apoptosis (ELISA) (MCF-10A [21]): induced apoptosis in all cells tested
